Calls of active or inactive are those of the source.
Experiments:
BJ [1] = assay: BJ-TERT fibroblast viability loss – cell-based, RAS-independent, luminescence, dose response (AID 1933); type: functional; settings: Homo sapiens
[2] = target: E3 ubiquitin-protein ligase Mdm2 (Homo sapiens, UniProt Q00987); assay: MDM2-luc reporter signal enhancers, multi-concentration potency testing, MDM2 ubiquitin-protein ligase inhibitor program, whole-cell format, luminescence detection, 384-well microplate (AID 1394); type: functional;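 also: MDM2 E3 inhibitors raise luminescence so EC50 is for signal enhancement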
E3 ubiquitin-protein ligase Mdm2, sequence (Q00987 whole entry): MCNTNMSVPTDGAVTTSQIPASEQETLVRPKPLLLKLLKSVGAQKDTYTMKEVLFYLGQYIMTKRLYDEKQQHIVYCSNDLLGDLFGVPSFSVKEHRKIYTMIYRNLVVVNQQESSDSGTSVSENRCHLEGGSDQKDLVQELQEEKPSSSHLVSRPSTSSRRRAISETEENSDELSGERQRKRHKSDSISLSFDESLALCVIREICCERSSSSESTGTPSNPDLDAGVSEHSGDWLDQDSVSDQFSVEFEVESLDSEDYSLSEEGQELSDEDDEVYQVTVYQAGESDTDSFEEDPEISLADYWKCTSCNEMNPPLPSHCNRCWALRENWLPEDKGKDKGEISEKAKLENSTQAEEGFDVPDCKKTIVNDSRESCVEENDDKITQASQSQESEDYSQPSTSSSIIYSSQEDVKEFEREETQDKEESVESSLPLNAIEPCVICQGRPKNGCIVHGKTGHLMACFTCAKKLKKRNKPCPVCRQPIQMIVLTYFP

BJ [3] = assay: BJ-TERT-LT-ST fibroblast viability loss – cell-based, RAS-independent, luminescence, dose response (AID 1935); type: functional; settings: Homo sapiens;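 also: BJ fibroblasts immortalized with TERT plus LT and ST oncogenes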
[4] = DRD fibroblast viability loss – cell-based, non-viral oncogenic, luminescence, dose response (AID 1934); type: functional; settings: Homo sapiens
BJ [5] = assay: cells; type: functional, cell-based; settings: Homo sapiens
[6] = loss of viability in HepG2 cells – cell-based, CellTiter-Glo, cherry-picked, cytotoxicity control for Shn3 inhibitor project, dose response (AID 624134); type: functional
[7] = HEK-293T viability loss after treatment – luminescence, T-cell screen hits, cytotoxicity control for TCR NF-kB inhibitor project, dose response (AID 489026); type: functional, cell-based;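 also: cells exposed to compound about 14 hours before the viability readout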
[8] = reduction of Shn3 3'UTR-driven luciferase in osteoblasts – cell-based, Clone20 osteoblasts, firefly luciferase, cherry-picked, dose response (AID 624132); type: functional;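 also: firefly luciferase luminescence from reporter carrying the Shn3 3'UTR in osteoblasts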
[9] = target: T1, Heat shock factor protein 1 (Mus musculus, UniProt P38532); assay: decrease of HSF1-responsive luciferase luminescence – cell-based, NIH3T3, dose retest, confirmation (AID 2382); type: functional;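 also: NIH3T3 fibroblasts with HSF1-driven luciferase reporter stressed by proteasome inhibitor MG132; luminescence from HSF1-driven luciferase expression after 8 hours of MG132 stress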
T1 sequence (P38532 whole entry): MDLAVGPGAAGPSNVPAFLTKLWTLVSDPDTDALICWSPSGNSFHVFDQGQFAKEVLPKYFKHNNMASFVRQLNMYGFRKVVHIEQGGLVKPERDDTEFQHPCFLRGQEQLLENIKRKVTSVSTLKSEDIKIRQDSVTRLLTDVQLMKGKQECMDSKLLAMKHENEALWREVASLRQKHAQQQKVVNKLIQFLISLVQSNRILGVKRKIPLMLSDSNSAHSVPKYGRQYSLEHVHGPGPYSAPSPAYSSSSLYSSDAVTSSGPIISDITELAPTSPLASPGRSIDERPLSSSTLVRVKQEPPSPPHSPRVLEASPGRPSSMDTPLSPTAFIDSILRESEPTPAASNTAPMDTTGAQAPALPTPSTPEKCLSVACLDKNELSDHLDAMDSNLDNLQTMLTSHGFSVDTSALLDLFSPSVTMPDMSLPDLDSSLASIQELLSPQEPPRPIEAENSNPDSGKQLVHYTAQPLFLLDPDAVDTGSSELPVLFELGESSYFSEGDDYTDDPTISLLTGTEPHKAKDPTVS

[10] = non-specific 3'UTR reporter inhibition in Clone20-Shn3RL – cell-based, Renilla luciferase, cherry-picked, counter-screen for Shn3 inhibitor project, dose response (AID 624133); type: functional
[11] = viability of uninfected HEp-2 cells – cell-based, HTS, cytotoxicity control for RSV inhibitor project, dose response (AID 2410); type: functional; settings: human respiratory syncytial virus
[12] = target: T2, Tyrosine-protein phosphatase non-receptor type 7 (Homo sapiens, UniProt P35236); assay: HePTP tyrosine phosphatase activity blockers – biochemical, absorbance, leukemia target, primary screen (AID 521); type: functional
T2 sequence (P35236 whole entry): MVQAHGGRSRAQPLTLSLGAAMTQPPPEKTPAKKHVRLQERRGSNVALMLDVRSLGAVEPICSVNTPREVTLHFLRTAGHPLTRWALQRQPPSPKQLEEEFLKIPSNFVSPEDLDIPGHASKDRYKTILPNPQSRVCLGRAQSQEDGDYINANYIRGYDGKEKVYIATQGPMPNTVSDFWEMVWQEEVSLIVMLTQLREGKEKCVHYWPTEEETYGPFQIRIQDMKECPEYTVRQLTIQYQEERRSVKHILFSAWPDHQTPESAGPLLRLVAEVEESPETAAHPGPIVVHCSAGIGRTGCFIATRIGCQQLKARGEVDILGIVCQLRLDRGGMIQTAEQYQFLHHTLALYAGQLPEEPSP

[13] = target: T3, Corticotropin-releasing factor receptor 2/Corticotropin-releasing factor-binding protein (Homo sapiens, UniProt P24387+Q13324); assay: activators of CRF receptor 2 with binding protein – uHTS hits, confirmation (AID 602473); type: functional; settings: read-out: EC50_Mean
T3 sequence (Q13324 whole entry): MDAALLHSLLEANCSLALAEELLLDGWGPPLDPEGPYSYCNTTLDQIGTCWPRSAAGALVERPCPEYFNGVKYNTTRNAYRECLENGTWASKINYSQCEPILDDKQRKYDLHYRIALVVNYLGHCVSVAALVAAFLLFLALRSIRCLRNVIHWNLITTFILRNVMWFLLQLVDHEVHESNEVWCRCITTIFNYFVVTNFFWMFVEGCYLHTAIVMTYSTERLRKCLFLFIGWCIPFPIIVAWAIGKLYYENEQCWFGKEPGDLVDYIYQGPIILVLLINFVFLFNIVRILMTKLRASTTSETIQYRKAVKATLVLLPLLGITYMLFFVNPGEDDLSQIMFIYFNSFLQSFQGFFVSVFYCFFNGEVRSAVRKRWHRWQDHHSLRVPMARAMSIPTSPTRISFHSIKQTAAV
T3 sequence (P24387 whole entry): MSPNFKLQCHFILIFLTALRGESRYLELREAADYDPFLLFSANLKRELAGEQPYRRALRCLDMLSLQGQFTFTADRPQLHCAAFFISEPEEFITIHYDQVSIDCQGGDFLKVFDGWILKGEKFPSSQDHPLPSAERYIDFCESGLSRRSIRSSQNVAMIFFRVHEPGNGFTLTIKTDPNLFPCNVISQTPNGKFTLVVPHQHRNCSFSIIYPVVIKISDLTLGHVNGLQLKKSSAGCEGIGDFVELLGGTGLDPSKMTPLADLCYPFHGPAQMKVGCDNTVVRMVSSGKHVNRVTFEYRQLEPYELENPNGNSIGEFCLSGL

Ephrin type-A receptor 4 = Ephrin type-A receptor 4 (Mus musculus, UniProt Q03137); assay: EphA4 ligand-binding antagonists – biochemical, colorimetric, mouse EphA4, primary screen (AID 689); type: functional
Ephrin type-A receptor 4, sequence (Q03137 whole entry): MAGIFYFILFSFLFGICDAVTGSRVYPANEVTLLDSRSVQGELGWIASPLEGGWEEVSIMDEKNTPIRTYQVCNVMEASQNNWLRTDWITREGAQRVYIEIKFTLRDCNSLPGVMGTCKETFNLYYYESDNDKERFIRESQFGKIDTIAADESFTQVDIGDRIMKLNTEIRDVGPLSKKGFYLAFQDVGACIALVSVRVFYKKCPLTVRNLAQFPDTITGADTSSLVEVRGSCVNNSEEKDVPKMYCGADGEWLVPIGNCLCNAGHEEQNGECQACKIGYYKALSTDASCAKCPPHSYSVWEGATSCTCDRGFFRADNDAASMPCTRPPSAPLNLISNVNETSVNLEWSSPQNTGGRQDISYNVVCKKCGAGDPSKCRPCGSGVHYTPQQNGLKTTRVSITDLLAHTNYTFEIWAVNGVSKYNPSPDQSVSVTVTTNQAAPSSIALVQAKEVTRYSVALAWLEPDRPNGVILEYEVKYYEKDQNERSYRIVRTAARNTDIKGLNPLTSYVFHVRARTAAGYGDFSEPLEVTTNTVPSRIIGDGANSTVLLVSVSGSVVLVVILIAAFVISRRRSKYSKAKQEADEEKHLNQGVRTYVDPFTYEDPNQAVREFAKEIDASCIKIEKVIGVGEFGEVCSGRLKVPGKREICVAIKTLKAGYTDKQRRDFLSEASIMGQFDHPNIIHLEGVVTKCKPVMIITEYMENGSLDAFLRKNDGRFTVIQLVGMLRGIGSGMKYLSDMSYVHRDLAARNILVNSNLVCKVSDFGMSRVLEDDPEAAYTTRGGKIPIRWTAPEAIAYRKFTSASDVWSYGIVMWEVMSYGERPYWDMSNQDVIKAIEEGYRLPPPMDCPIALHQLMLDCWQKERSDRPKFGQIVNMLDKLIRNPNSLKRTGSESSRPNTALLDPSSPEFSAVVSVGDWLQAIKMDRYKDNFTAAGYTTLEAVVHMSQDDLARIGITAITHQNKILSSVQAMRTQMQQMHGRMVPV

[14] = A Cell Based Secondary Assay To Explore Cytotoxicity of Compounds that Sensitize Mycobacterium Tuberculosis to Beta-Lactam Antibiotics.; type: functional

C=CCSc1nc2ccccc2n1C(=O)/C=C/c1cc(OC)c(OC)c(OC)c1
EC50 (BJ [1]): 2.56 µM (inconclusive)
EC50 [2]: 0.27 µM (active)
EC50 (BJ [3]): 3.4 µM (active)
EC50 [4]: 2.66 µM (active)
EC50 (BJ [5]): > 150 µM (inconclusive)
AC50 [6]: 63.8 µM (active)
IC50 [7]: 71.8 µM (inactive)
AC50 [8]: 1.13 µM (active)
EC50 [9]: 10.3 µM (inconclusive)
AC50 [10]: 14.2 µM (active)

O=C(Cc1cccc2ccccc12)Nc1ccccc1C(=O)O
IC50 (cells): 24.4 µM (active)
CC50 [11]: 28.8 µM (active)

COc1ccc(NC(=O)C2CCCN(S(=O)(=O)c3cccnc3)C2)cc1 (stereo not drawn)
IC50 [12]: > 100 µM (not active)

Cc1cc(NC(=O)C2CC2)ncc1NC(=O)C12CC3CC(CC(C3)C1)C2
EC50 [2]: 15.7 µM (not active)

C=CCn1c(=O)/c(=C/c2cc(OC)c(OC)c(OC)c2)s/c1=C(/C#N)c1nc2ccccc2n1C
EC50 [13]: 13.3 µM (active)
IC50 (Ephrin type-A receptor 4): > 100 µM (not active)

COc1ccc(Cn2c(=O)[nH]c3cc(C(=O)N4CCN(c5ccccc5F)CC4)ccc3c2=O)cc1
CC50 [14]: > 40 µM (active)

O=C(c1ccc2c(=O)n(Cc3ccc4c(c3)OCO4)c(=S)[nH]c2c1)N1CCCCC1
IC50 (Ephrin type-A receptor 4): > 100 µM (not active)
